Data taken from paper PMC9421656, “Beyond Retigabine: Design, Synthesis, and Pharmacological Characterization of a Potent and Chemically Stable Neuronal Kv7 Channel Activator with Anticonvulsant Activity” (Journal of Medicinal Chemistry, 2022).
Like-named read-outs stand apart in the source and are kept apart here.

Tests used:
Kv7.2 S303A channels = target: T1, Kv7.2 S303A channels (Homo sapiens, UniProt O43526, S303A); test: Whole-cell patch-clamp on homomeric Kv7.2 S303A mutant channels; assay type: cell-based; conditions: 10 μM RET or 1 μM 60
T1 construct: expressed in transfected cells; host or cells: CHO cells, transient transfection (pcDNA3.1)
Text: Current scale, 200 pA; time scale, 200 ms. (B,C) Dose–response curves reporting the effects of the 3 indicated compounds on the V1/2 shift (ΔV1/2) in mV (B) and on maximal current density (Idrug/Icontrol; C) calculated at +20 mV for Kv7.2/Kv7.3 channels.
(§1) Channel subunits were expressed in Chinese hamster ovary (CHO) cells by transient transfection, using plasmids containing cDNAs encoding human Kv7.2 and/or Kv7.3, all cloned in the pcDNA3.1 vector. According to the experimental protocol, these plasmids were expressed individually or in combination, together with a plasmid-expressing enhanced green fluorescent protein (Clontech, Palo Alto, CA) used as a transfection marker. Total cDNA in the transfection mixture was kept at 4 μg. CHO cells were grown in 100 mm plastic Petri dishes in Dulbecco’s modified Eagle’s medium containing 10% fetal bovine serum, nonessential amino acids (0.1 mM), penicillin (50 U/mL), and streptomycin ([…]) in a humidified atmosphere at 37 °C with 5% CO2.
Currents from CHO cells were recorded at room temperature (20–22 °C) using the whole-cell configuration of the patch-clamp technique, with glass micropipettes of 3–5 MΩ resistance. During the recording, constant perfusion of extracellular solution was maintained. […] The pipette (intracellular) solution contained (in mM): 140 KCl, 2 MgCl2, 10 EGTA, 10 HEPES, 5 Mg^2+-ATP, at pH 7.3–7.4, with KOH. […]

[1] = Photostability under UV-visible light with HPLC analysis (degradation, dimer formation); assay type: physicochemical; conditions: for % Degradation (3h, UV): 10 μM, buffered aqueous solution pH 7.4, 3 h UV-visible light, ± SD; for Dimers Formation: HPLC at 550 nm
Text: Two different HPLC wavelengths were utilized: (a) […] to evaluate the decreased concentration of the starting molecule; (b) 550 nm to investigate the formation of phenazine/phenazinium dimers, as previously described.[10] Unfortunately, dimer formation was detected for all tested compounds, except for 23 and 24. […]. […]. The first group consisted of N4 (−X- in Table 2) substituted analogues, in which the tertiary amine is unavailable for the formation of phenazine dimers (compounds 25–28). […]. The third group included derivatives replacing hydrogen atoms with electron-withdrawing fluorine atoms at position R2 of the benzene-1,2,4-triamine core scaffold (compounds 59, 60), a strategy likely reducing the reactivity of N2 and N4. […].
Photostability experiments were performed by dissolving compounds in DMSO and then diluting in buffered aqueous solutions at pH 7.4 to a final concentration of 10 μM. 1 cm quartz cells, filled with the abovementioned solutions, were irradiated by a UV lamp (UV Consulting TQ 150 equipped with Duran 50 sleeve and 150 W power supply unit, Peschl, Germany) at a fixed distance of 20 cm from the UV source. Control samples were maintained at 37 °C, wrapped with aluminum foil to avoid light exposure, and used to assess chemical stability of the compounds. At predetermined intervals, aliquots were withdrawn and analyzed by UHPLC in order to assess the concentration decrease of the starting materials and the presence of the dimers usually formed by retigabine.
Photostability and chemical stability experiments were carried out on a Kinetex^TM C18 150 × 2.1 mm × 2.6 μm (100 Å) column (Phenomenex, Bologna, Italy). The optimal mobile phase consisted of 0.1% TFA/H2O v/v (A) and 0.1% TFA/ACN v/v (B). Analysis was performed in gradient elution as follows: 0–13.0 min, 5–65% B; 13–14.0 min, 65–95% B; 14–15.0 min, isocratic to 95% B; 15–15.01 min, 95–5% B; then 3 min for column re-equilibration. The flow rate was 0.5 mL min^–1. The column oven temperature was set to 45 °C. The injection volume was 7 μL of sample. The following PDA parameters were applied: sampling rate, 12.5 Hz; detector time constant, 0.160 s; cell temperature, 40 °C. Data acquisition was set in the range 190–800 nm, and chromatograms were monitored at 224 nm to assess the decrease in concentration of the starting material, while a wavelength of 550 nm was used to eventually detect dimerization.

in vivo = conditions: Sprague-Dawley, rat, ip, 0.3 mg/kg
Description: The drug half-lives were calculated using GraphPad Prism 8.0.2 (GraphPad Software, LaJolla, CA).
Returning to 40% B in 0.10 min. The flow rate was set at 0.5 mL/min. The column oven was set at 45 °C, and 5 μL of extract was injected. All additives and mobile phases were LCMS-grade and purchased from Merck (Milan, Italy).
The ESI was operated in positive mode. […] Interface temperature, desolvation line temperature, and heat block temperature were set, respectively, to 250, 250, and 350 °C. Nebulizing, drying (N2), and heating gas (air) were set, respectively, to 3, 10, and 10 L/min.

Kv7.2/Kv7.3 channels = Kv7.2/Kv7.3 channels (Homo sapiens, UniProt O43525+O43526); test: Whole-cell patch-clamp electrophysiology in CHO cells expressing Kv7.2/Kv7.3; assay type: cell-based; set-up: expressed in transfected cells; host or cells: CHO cells, transient transfection (pcDNA3.1, Lipofectamine 2000); conditions: for EC50: dose-response 0.01–30 μM
Description: as §1
Currents from CHO cells were recorded at room temperature (20–22 °C) using the whole-cell configuration of the patch-clamp technique, with glass micropipettes of 3–5 MΩ resistance. During the recording, constant perfusion of extracellular solution was maintained. […] The pipette (intracellular) solution contained (in mM): 140 KCl, 2 MgCl2, 10 EGTA, 10 HEPES, 5 Mg^2+-ATP, at pH 7.3–7.4, with KOH. […] To evaluate the activity of each compound on Kv7.2 + Kv7.3 currents, the cells were clamped at −80 mV and conductance–voltage curves (G/V curves; activation curves) were generated by normalizing to the maximal value of the instantaneous isopotential currents at 0 mV and expressing the normalized values as a function of the preceding voltages. Data were fit to a Boltzmann distribution of the following form: y = max/[1 + exp (V1/2 – V)/k], where V is the test potential, V1/2 is the half-activation potential, and k is the slope factor.
Indicated EC50 values are the mean of at least three independent experiments ± standard error of the mean (SEM).
Statistically significant differences in electrophysiological data were evaluated with the Student t test or with ANOVA followed by the Student–Newman–Keuls test when multiple groups were compared, with the threshold set at p < 0.05. […] Values are expressed as the […] mean ± standard error of the mean (SEM) of at least three cells recorded in at least three independent transfections.

| Compound | Kv7 opening ability in S303A channels (Kv7.2 S303A channels) | % Degradation (3h, UV) [1] [%] | Dimers Formation ([1]; 3 h UV-visible light) | concentration at 0.5 h (in vivo) [ng/mL] | concentration at 2 h (in vivo) [ng/mL] | concentration at 4 h (in vivo) [ng/mL] | concentration at 8 h (in vivo) [ng/mL] | concentration at 24 h (in vivo) [ng/mL] | half-life (in vivo) [h] | Potency relative to RL-81 (Kv7.2/Kv7.3 channels) | Leftward shift in V1/2 (ΔV1/2) (Kv7.2/Kv7.3 channels; 1 μM) [mV] | Idrug/Icontrol (maximal current density) (Kv7.2/Kv7.3 channels; calculated at +20 mV) | EC50 (Kv7.2/Kv7.3 channels; current at +20 mV, read-out: Maximal currents EC50) [nM] | EC50 (Kv7.2/Kv7.3 channels; read-out: ΔV1/2 EC50) [nM] | Potency over retigabine as Kv7.2/Kv7.3 activator (fold/times) (Kv7.2/Kv7.3 channels; from ΔV1/2 EC50) | Photodegradation (in words) ([1]; 3 h UV-visible light, compared with retigabine) |
| --- | --- | --- | --- | --- | --- | --- | --- | --- | --- | --- | --- | --- | --- | --- | --- | --- |
| CCOC(=O)Nc1ccc(NCc2ccc(F)cc2)cc1N [RET, retigabine] | slightly but significantly reduced | 61.3±0.1 | Yes |  |  |  |  |  |  |  |  |  |  |  |  |  |
| CC(C)(C)CC(=O)Nc1ccc(NCc2ccc(C(F)(F)F)cc2)c(F)c1N [compound 60, N-(2-Amino-3-fluoro-4-((4-(trifluoromethyl)benzyl)amino)phenyl)-3,3-dimethylbutanamide] | slightly but significantly reduced | 34.8± 1.8 | failed to dimerize and No | 9 | 8.7 | 6.8 | 5.4 | 0 | 16.9 | about twice more potent than RL-81 | ~50 | 2.1 ± 0.3 | 60 ± 10 | 150 ± 30 | 16 | more photostable than retigabine |
